This note sets out measurements from patent US12594267B2, “Capsid inhibitors for the treatment of HIV” (Gilead Sciences, Inc., priority 2018, dated 2026).

One data set has as its system NRTI-resistant viruses. It is filed as cell-based, HIV-1. The conditions noted are these: MT-2 cells; for EC50 Fold-Change: Mutant/WT (LAI) EC50 ratio, mean ± s.d. of three experiments. As for the experimental part:
The antiviral activity of the compound of Formula (a) was tested against a panel of known HIV-1 mutants resistant to HIV PIs (ATV and DRV), NRTIs (TFV and FTC), NNRTIs (RPV and EFV) or INSTIs (RAL, EVG and DTG) using a cytopathic antiviral assay in MT-2 cells.

A further data set has as its system NNRTI-resistant viruses. In words: Cytopathic antiviral assay in MT-2 cells, NNRTI-resistant viruses. The format is cell-based, HIV-1. As to conditions: for EC50 Fold-Change: Mutant/WT (HXB2D) EC50 ratio, mean ± s.d. of three experiments. As for the experimental part: The antiviral activity of the compound of Formula (a) was tested against a panel of known HIV-1 mutants resistant to HIV PIs (ATV and DRV), NRTIs (TFV and FTC), NNRTIs (RPV and EFV) or INSTIs (RAL, EVG and DTG) using a cytopathic antiviral assay in MT-2 cells. The compound of Formula (Ia) was fully active against all tested mutants resistant to PIs (Table 11), NRTIs (Table 12), NNRTIs (Table 13) or INSTIs (Table 14).
On the technique in general: Cytopathic effects are the visible damage that an infection or toxin causes in cultured cells.

Data set [1] can be described thus: IV AUC used as reference for % F of capsules. More on the design: species or system beagle dogs. As to conditions: beagle, dog, in vivo; IV at 1 mg/kg; reference for % F in Table 9; read-out: average IV AUC0-72h.

Read-outs that look alike come from different tables or passages of the source.

As for `CC(C)(C#Cc1ccc(-c2ccc(Cl)c3c(NS(C)(=O)=O)nn(CC(F)(F)F)c23)c([C@H](Cc2cc(F)cc(F)c2)NC(=O)Cn2nc(C(F)(F)F)c3c2C(F)(F)[C@@H]2C[C@H]32)n1)S(C)(=O)=O` [Formula (Ia), N—((S)-1-(3-(4-chloro-3-(methylsulfonamido)-1-(2,2,2-trifluoroethyl)-1H-indazol-7-yl)-6-(3-methyl-3-(methylsulfonyl)but-1-yn-1-yl)pyridin-2-yl)-2-(3,5-difluorophenyl)ethyl)-2-((3bS,4aR)-5,5-difluoro-3-(trifluoromethyl)-3b,4,4a,5-tetrahydro-1H-cyclopropa[3,4]cyclopenta[1,2-c]pyrazol-1-yl)acetamide], the “EC50 Fold-Change” value was 0.4 ± 0.2 in the data set with NRTI-resistant viruses (6TAMs); 0.7 ± 0.2 with NRTI-resistant viruses (K65R); 0.5 ± 0.3 with NRTI-resistant viruses (M184V); 0.3 ± 0.1 with NNRTI-resistant viruses (K103N); 0.5 ± 0.2 with NNRTI-resistant viruses (K103N/Y181C); 0.5 ± 0.2 with NNRTI-resistant viruses (L100I/K103N). Also, the figures for the “EC50 Fold-Change” value in the data set on NNRTI-resistant viruses (Y181C) and with NNRTI-resistant viruses (Y188L) were 1.6 ± 1.0 and 0.5 ± 0.1, respectively. Besides, the “activity against all tested mutants, in words” value with NRTI-resistant viruses (mutants resistant to NRTIs) and in the data set on NNRTI-resistant viruses (mutants resistant to NNRTIs) was “fully active” each time. In data set [1], the AUC(0-t) came to 13.5 µM·h.
